# Patent publication US20190031773A1, “INHIBITORS AND ANTAGONISTS OF HUMAN PYCR1” (AGENCY FOR SCIENCE, TECHNOLOGY AND RESEARCH, priority 2017, published 2019)
# Tests used:
# [1] = target: T1, PYCR1 full length recombinant enzyme (aa 1-319) (Homo sapiens, UniProt P32322); assay: PYCR1 Inhibition Assay (NAD(P)H-Glo luminescence); format: biochemical; conditions: 5 mM L-proline + 0.5 mM NAD+, 4.2 nM enzyme, 45 min at room temperature
# T1 construct: PYCR1 full length recombinant enzyme (aa 1-319) with a 6His-tag at the N-terminus; 6His (N); made in house; host or cells: E. coli
# T1 sequence (P32322 1-319): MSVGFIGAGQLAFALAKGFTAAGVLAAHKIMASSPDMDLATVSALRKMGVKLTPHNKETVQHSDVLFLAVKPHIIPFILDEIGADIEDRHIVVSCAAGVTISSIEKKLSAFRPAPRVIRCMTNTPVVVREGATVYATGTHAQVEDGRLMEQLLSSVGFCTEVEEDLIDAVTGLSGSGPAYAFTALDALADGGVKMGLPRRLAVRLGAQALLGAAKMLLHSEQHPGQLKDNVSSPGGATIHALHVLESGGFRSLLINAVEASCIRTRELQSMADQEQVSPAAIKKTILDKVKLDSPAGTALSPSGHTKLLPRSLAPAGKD
# Source text: An example for such assay may look as follows:
# The assay is based on the ability of PYCR1 to catalyze the oxidation of L-proline to L-1 pyrroline-5-carboxylate which occurs concomitant with the reduction of the cosubstrate NAD^+ to its reduced form NADH+H^+. The amount of NADH+H^+ was quantified using the NAD(P)H-Glo™ kit from Promega (catalogue number G9062). Components of the kit generate a luciferase-based luminescence signal the intensity of which is linearly proportional to the amount of NADH+H^+ generated by the PYCR1 reaction and consequently the PYCR1 activity. The luminescence intensity was taken as the measure for the amount of NADH+H^+ generated by PYCR1. […] 40 nl Test compound (dissolved and serially diluted in DMSO at final concentrations during the enzymatic reaction ranging from 6.9E-09 M to 4.5E-05 M) is added to the well of a white 1536-well microtiter plate using an acoustic dispenser (Echo Liquid Handler from Labcyte Inc.) • 2. […] Preincubation of enzyme and test compound for approximately 15 min at room temperature • 4. Add 2.0 μl Substrate mix in assay buffer (5 mM L-proline+0.5 mM NAD^+ final concentration during the enzymatic reaction) • 5. 45 min PYCR1 reaction at room temperature (linear range of the enzymatic reaction) • 6. Add 1.0 μl Stopping agent in assay buffer (2 mM ZnCl2 final concentration) • 7. Incubate for 15 min at room temperature • 8. Add 2.0 μl NAD(P)H-Glo™ reagent (Promega) • 9. Incubate for 30-150 min at room temperature for generation of the persistent luminescence signal • 10. Measure luminescence intensity in a ViewLux Imager (PerkinElmer)
# rat MH3924A cells [2] = tested on: rat MH3924A cells
# Description: Morris hepatoma cells (MH3924A) were cultured in Dulbecco's modified eagle medium (DMEM) media supplemented with 10% fetal bovine serum (FBS), 100 IU/ml penicillin, 100 μg/ml streptomycin. To assess cell proliferation, cells were seeded in T25 flasks and incubated in DMEM complete medium for 24 hours to allow attachment. Subsequently, seeding cells were infected with shRNA lentivirus in the presence of 8μg/ ml of polybrene for about 7 hours, cells were grown for varying lengths of time, at the end of which they were detached by trypsinization and counted with Countess (Life Technologies, Carlsbad, USA).
# rat MH3924A cells [3] = assay: Subcutaneous MH3924A xenograft model; format: in vivo; conditions: scid mice
# Source text: Female scid mice (InVivos, Singapore) were subcutaneously inoculated with 1×10^6rat MH3924A cells that were stably transfected with either shRNA Pycr1.2 or scrambled control shRNA. Mice were sacrificed and tumors excised 3 weeks later.
# rat MH3924A cells [4] = assay: Orthotopic MH3924A xenograft models, doxycycline-inducible shRNA; format: in vivo, scid mice; conditions: preventive setting, knockdown induced by doxycycline one day after orthotopic implantation
# Source text: The HCC model was created by the direct intrahepatic injection of rat MH3924A cells harboring inducible shRNA Pycr1.2 or scrambled shRNA constructs into scid mice (InVivos, Singapore). The mice were anesthetized and a midline incision was made to expose the liver. The cells were then slowly injected under the hepatic capsule into the upper left lobe of the liver using a 27-G needle. A pale, whitish color could be observed at the point of injection under the hepatic capsule. Gentle compression was applied with a cotton applicator to stop bleeding and reflux of the cells. The abdomen was closed with a 4-0 silk suture.
# In the preventive setting (FIG. 7), shRNA expression was induced the day after cell injection by adding 1 μg/ml doxycycline to the drinking water. Two weeks later, animals were sacrificed and tumors excised for analysis (n=5).
# In the therapeutic setting, mice were subjected to liver MRI (magnetic resonance imaging) 7 days (1st experiment, FIG. 8) or 10 days (2nd experiment, FIG. 9) after cell injection and shRNA expression was induced one or four days later by adding 1 μg/ml doxycycline to the drinking water. On day 19 (1st experiment) or 21 (2nd experiment), animals were subjected to liver MRI and sacrificed. Tumors were lysed and analyzed for PYCR1 by Western blot.
molecule,measurement,setting,value
COc1ccc(C(=O)c2oc3ccccc3c2CSCCC(=O)OC(C)(C)C)cc1C(=O)O [5-[(3-{[(3-tert-butoxy-3-oxopropyl)thio]methyl}-1-benzofuran-2-yl)carbonyl]-2-methoxybenzoic acid],IC50,[1],8.5 µM
O=C(Cc1ccc(C(=O)O)cc1)NC(c1ccccc1)c1ccccc1N1CCCCC1 (centres unmarked) [4-(2-oxo-2-{[phenyl(2-piperidin-1-ylphenyl)methyl]amino}ethyl)benzoic acid],IC50,[1],7.3 µM
"O=C(CCCc1nc(-c2ccc(Cl)cc2)no1)Nc1ccccc1C(=O)O [2-({4-[3-(4-chlorophenyl)-1,2,4-oxadiazol-5-yl]butanoyl}amino)benzoic acid]",IC50,[1],8 µM
"shRNA Pycr1.2: Rat PYCR1.2 shRNA: GAACCTGACACCCCACAACAA, short hairpin oligonucleotide targeting rat Pycr1 in lentiviral vector pLKO or pLKO-Tet",cell growth,"rat MH3924A cells [2]; doxycycline-inducible PYCR1 knockdown MH3924A cell line, with vs without doxycycline",reduced cell growth
same,cell proliferation,"rat MH3924A cells [2]; rat MH3924A cells, shRNA knockdown vs scrambled shRNA",reduced proliferation
same,tumor weight,"rat MH3924A cells [3]; MH3924A cells stably expressing shRNA, 3 weeks, n=5",significantly reduced
same,tumor growth in vivo,rat MH3924A cells [3]; tumors excised 3 weeks later,significantly inhibited tumor growth
same,tumor growth,rat MH3924A cells [4],significantly reduced tumor growth
